Assay results taken from US11958828B1, “4,5-bis(4-bromophenyl)-1-hexyl-2-(3-pyridyl)-1H-imidazole as an antimicrobial compound” (KING FAISAL UNIVERSITY, priority 2023, dated 2024).

Columns and labels:
Type in all cases: cell-based
Settings in all cases: after 10, 20, 40 and 60 min at all dilutions 1:100, 1:200, 1:400, 1:800
Candida albicans = assay: Antimicrobial testing by agar dilution, Candida albicans
Protocol: (§1) The antimicrobial properties of the 4,5-bis(4-bromophenyl)-1-hexyl-2-(3-Pyridyl)-1H-imidazole (5) were studied by the method of agar dilution. Test solutions of each compound were prepared in concentration of 1% using dimethylformamide as a solvent then they are diluted in physiological solution to obtain the final experimental dilutions 1:100, 1:200, 1:400, 1:800. The effect of these substances were compared with furacillin in a controllable study. The testing microbes used were gram positive bacteria Staphylococcus aureus, gram negative bacteria Escherichia coli, Pseudomonas aeruginosa and Candida albicans fungi were taken. The experiments used for this survey were meat-pentonlu agar (EPA) for cultivation of bacteria and Saburo environment for fungi. Each experiment used 1 ml of test solution on each plate 500 min. Add 2 drops of emulsified with microbes feel. All experimental samples were taken from the agar after 10, 20, 40, 60 minutes in the environment on the basis of Patrk planted. Bacteria were cultivated at a temperature of 37° C. for 1 day and the mushroom was kept in a thermostat for […] at a temperature of 28° C. in the. Then results were checked.

Escherichia coli = assay: Antimicrobial testing by agar dilution, Escherichia coli
Protocol: as §1

Staphylococcus aureus = assay: Antimicrobial testing by agar dilution, Staphylococcus aureus
Protocol: as §1

Pseudomonas aeruginosa = assay: Antimicrobial testing by agar dilution, Pseudomonas aeruginosa
Protocol: as §1

Measured: inhibition activity (in words)

CCCCCCn1c(-c2cccnc2)nc(-c2ccc(Br)cc2)c1-c1ccc(Br)cc1 [4,5-bis(4-bromophenyl)-1-hexyl-2-(3-pyridyl)-1H-imidazole]
highest inhibition activity: all assays above
